Measured values as given in patent US20100028872A1, “Methods for the Detection of Cancer” (priority 2006, published 2010).

Key:
[1] = system: HRC51 clear cell renal tumor cell line; test: Expression microarray of genes upregulated after 5Aza-dC and TSA treatment; type: cell-based, human; conditions: 5 μM 5Aza-dC and 500 nM TSA, 14,802 gene microarray
Description: (§1) 5Aza-dC (Sigma, St. Louis, Mo.) was dissolved in phosphate buffered saline (PBS) as a 5 mM stock solution, and stored in aliquots at −80° C. TSA (Wako, Richmond, Va.) was dissolved in absolute ethanol as a 330 μM stock solution, and stored at −20° C. The 4 renal cell lines were split to low density and exposed to 5Aza-dC at a final concentration of 5 μM, again 24 hours after the beginning of treatment and, if necessary, further treatment until the cells had undergone at least 2 doublings. The cells were also treated with TSA at a final concentration of 500 nM during the 24 hours prior to harvest for RNA extraction. Untreated (mock) cells were cultured over an identical period of time with an equivalent volume of PBS and, for the final 24 hours, with an equivalent volume of EtOH.
(§2) Total RNA was isolated from drug-treated and untreated cultured cells using TRIZOL reagent (Invitrogen, Carlsbad, Calif.) and purified with the RNAeasy Mini Kit (Quiagen, Valencia, Calif.) combined with DNAase treatment. The RNA quality was confirmed by the ratio of 28S and 18S ribosomal RNA after agarose gel electrophoresis. Twenty μg of total RNA was reverse transcribed using oligo (dT)24 primer and Superscript II reverse transcriptase (Invitrogen, Carlsbad, Calif.) for 1.5 hours at 42° C.
(§3) For each cell line, both treated and untreated cDNA was labeled with Cy3 or Cy5 (Amersham Biosciences, Piscataway, N.J.) and then hybridized to separate human 15k oligoarrays (MWG-Biotech Inc, High Point, N.C.) according to the manufacturer's recommendation for 18 hours at 42° C. The microarrays were processed and spotted in the DNA Microarray Facility at FCCC. The Gene list, Gene ID and Template files can be viewed at research.fccc.edu/facilities/microarray. In addition, microarray hybridization was performed with the opposite labels (dye flip) from each cell line. The hybridized slides were scanned using a GMS 428 Scanner (Affymetrix, Santa Clara, Calif.) to generate high-resolution images for both Cy3 and Cy5 channels. Image analysis was performed using the ImaGene software (BioDiscovery, Inc, El Segundo, Calif.).
(§4) The genes corresponding to each oligonucleotide spotted on the array were identified using an optimized segmentation algorithm. […] Data were analyzed using the GeneSight software (BioDiscovery, Inc, El Segundo, Calif.) which includes background subtraction, data normalization (Lowess transformation), calculation of ratios, and statistical analysis of replicate spots and slides.
(§5) Up-regulation of the 14,802 gene microarray was analyzed in 4 RCC lines treated with 5 μM of 5Aza-dC and 500 nM of TSA. […] The promoter region of each gene was also analyzed for the presence of a CpG island with the characteristics described by Takai and Jones (Takai et al. (2002) Proc. Natl. Acad. Sci., 99:3740-5). […]

[2] = system: 786-0 clear cell renal tumor line; test: as above; type: cell-based, human; conditions: 5 μM 5Aza-dC and 500 nM TSA, 14,802 gene microarray
Description: as §1, §2, §3, §4, §5

[3] = system: ACHN papillary renal tumor cell line; test: as above; type: cell-based, human; conditions: 5 μM 5Aza-dC and 500 nM TSA, 14,802 gene microarray
Description: as §1, §2, §3, §4, §5

[4] = system: HRC59 papillary renal tumor cell line; test: as above; type: cell-based, human; conditions: 5 μM 5Aza-dC and 500 nM TSA, 14,802 gene microarray
Description: as §1, §2, §3, §4, §5

[5] = system: SW48 colorectal tumor cell line; test: 5Aza-dC dose optimisation: re-expression of silenced tumor suppressor genes on the expression array; type: cell-based; conditions: 5 μM 5Aza-dC for at least two cell doubling times, with TSA (500 nM)
From the text: To determine the optimal 5Aza-dC dosage for robust detection of transcriptional reactivation on the microarray without excessive toxicity to the treated cells, the re-expression of 5 tumor suppressor genes, p16^INK4a, MLH1, MGMT, RARβ, and Timp-3, was examined at different doses of 5Aza-dC. The five TSG are well characterized as hypermethylated with associated silencing in the SW48 colorectal tumor cell line, which has a similar cell doubling time to the RCC lines (Wheeler et al. (1999) Proc. Natl. Acad. Sci., 96:10296-301; Esteller et al. (1999) Cancer Res., 59:793-97; Paz et al. (2003) Cancer Res., 63:1114-21; Herman et al. (1995) Cancer Res., 55:4525-30; Bachman et al. (1999) Cancer Res., 59:798-802). RNA was extracted from SW48 cell cultures after treatment with 1, 5, or 10 μM 5Aza-dC and TSA (500 nM). RT-PCR was then performed and the product labeled and hybridized to the expression array. […] The 5Aza-dC treatment was combined with TSA because there is good evidence that the processes of methylation and deacetylation interact to silence transcription, although TSA may have less synergistic effect at the relatively higher 5 μM 5Aza-dC dose employed than when combined with lower doses of 5Aza-dC (Cameron et al. (1999) Nat. Genet., 21:103-7; Wade et al. (2001) Oncogene, 20:3166-73). […]

With `Nc1ncn([C@H]2C[C@H](O)[C@@H](CO)O2)c(=O)n1` [5Aza-dC, 5Aza-2deoxycytidine] the “genes upregulated at least 3-fold compared to the untreated cells” value (from here on “genes upregulated at least 3-fold”) [1] was 112 genes, the “genes upregulated at least 3-fold” value [2] was 170 genes and the “genes upregulated at least 3-fold” value [3] was 111 genes. The “genes upregulated at least 3-fold” value [4] was 178 genes, the “toxicity as assessed by comparison of cell morphology and cell death between control and treated cells” value [5] was “minimal toxicity” and the “re-expression of 5 tumor suppressor genes (p16INK4a, MLH1, MGMT, RARβ, Timp-3)” value ([5]; SW48 cells) was “re-expression of the 5 TSG”.
